From ChEMBL document CHEMBL1127397, “The synthesis of nucleoside 5'-O-(1,1-dithiotriphosphates)” (J Med Chem, 1994)
In brackets after ≈: the same amount, converted by molar mass.

Columns and labels:
CCRF-CEM [1] = assay: Tested for the ability to inhibit HIV-1 (IIIB) replication in CEM cells; format: functional, cell-based; conditions: Homo sapiens
CCRF-CEM [2] = assay: Tested for the ability to inhibit HIV-2 (ROD) replication in CEM cells; format: functional, cell-based; conditions: Homo sapiens
[3] = biological target: Human immunodeficiency virus type 1 reverse transcriptase (Human immunodeficiency virus 1, UniProt Q72547); assay: Tested against HIV-1 reverse transcriptase (HIV-1 RT) with poly(rA)/(dT)12-18 as template and [methyl-3H]-dTTP as competing substrate; format: functional

EC50 (CCRF-CEM [1]) [µg/mL] | IC50 [3] [nM] | Structure (SMILES) | EC50 (CCRF-CEM [2]) [µg/mL]
> 50 |  | Nc1nc(O)c2ncn([C@H]3CC(O)C(COP(=S)(S)OP(=O)(O)OP(=O)(O)O)O3)c2n1 (stereo not given in full) | > 50
0.5 (≈ 0.927 µM) | 940 | Cc1cn([C@H]2CC(N=[N+]=[N-])C(COP(=S)(S)OP(=O)(O)OP(=O)(O)O)O2)c(=O)[nH]c1=O (stereo not given in full) | 
> 50 |  | Nc1nc(O)c2ncn(C3O[C@H](COP(=S)(S)OP(=O)(O)OP(=O)(O)O)[C@@H](O)[C@H]3O)c2n1 (stereo not given in full) | > 50
42 (≈ 77.9 µM) |  | Nc1ncnc2c1ncn2C1O[C@H](COP(=S)(S)OP(=O)(O)OP(=O)(O)O)[C@@H](O)[C@H]1O (stereo not given in full) | 116 (≈ 215 µM)
 | 3 | Cc1cn([C@H]2C[C@H](N=[N+]=[N-])[C@@H](CO[P@](=O)(O)O[P@](=O)(O)OP(=O)(O)O)O2)c(=O)[nH]c1=O [ZIDOVUDINE TRIPHOSPHATE] | 

Structure (SMILES) | EC50 (CCRF-CEM [1]) [µg/mL] | IC50 [3] [nM] | EC50 (CCRF-CEM [2]) [µg/mL]
Nc1ncnc2c1ncn2[C@H]1CC(O)C(COP(=S)(S)OP(=O)(O)OP(=O)(O)O)O1 (stereo not given in full) | 43 (≈ 82.2 µM) |  | 50 (≈ 95.5 µM)
Nc1ccn([C@H]2CC(O)C(COP(=S)(S)OP(=O)(O)OP(=O)(O)O)O2)c(=O)n1 (stereo not given in full) | 97 (≈ 194 µM) |  | 123 (≈ 246 µM)
Cc1cn([C@H]2CC(O)C(COP(=S)(S)OP(=O)(O)OP(=O)(O)O)O2)c(=O)[nH]c1=O (stereo not given in full) | > 50 |  | > 50
